Test results taken from paper PMC9237828, “Chemically Tuning Resveratrol for the Effective Killing of Gram-Positive Pathogens” (Journal of Natural Products, 2022).
Values after ≈ are worked out from the molar mass of the structure shown. Where two headings read alike, the source gives them in different places.

Tests used:
E. faecalis LMG08222 = assay: microbe, parasite or virus in culture; type: cell-based, Enterococcus faecalis
S.aureus LMG8224 = assay: microbe, parasite or virus in culture; type: cell-based, Staphylococcus aureus
E. coli LMG8224 = assay: Outer membrane permeabilization test (MIC with or without L-11 peptide); settings: for MIC (μM) L-11 + 4 μM: presence of 4 μM L-11 outer-membrane-perturbing peptide; for MIC: Escherichia coli, LMG8224, read-out: MIC (μM) L-11 + 0 μM
[1] = tested on: E. faecium LMG16003 and S. aureus LMG82224; assay: Combination with 24 traditional antibiotics, overall outcome; type: cell-based
B. cereus ATCC10987 [2] = assay: Effect of the compounds on actively growing bacteria (lysis, OD600); type: cell-based, Bacillus cereus
C. tetani CECT4629 = assay: microbe, parasite or virus in culture; type: cell-based
B. cereus ATCC10987 [3] = assay: microbe, parasite or virus in culture; type: cell-based, Bacillus cereus; settings: for MIC: Bacillus cereus, ATCC10987, 20 h, read-out: Minimal Inhibition Concentration (MIC) B. cereus ATCC10987
E. faecalis LMG16216 = assay: microbe, parasite or virus in culture; type: cell-based, Enterococcus faecalis
E. faecalis V583 = assay: microbe, parasite or virus in culture; type: cell-based, Enterococcus faecalis; settings: for MIC: Enterococcus faecalis, V583, 20 h, read-out: Minimal Inhibition Concentration (MIC) E. faecalis V583
S.aureus LMG10147 = assay: microbe, parasite or virus in culture; type: cell-based, Staphylococcus aureus; settings: for MIC: Staphylococcus aureus, LMG10147, 20 h, read-out: Minimal Inhibition Concentration (MIC) S.aureus LMG10147
B. cereus ATCC14579 = assay: microbe, parasite or virus in culture; type: cell-based, Bacillus cereus; settings: for MIC: Bacillus cereus, ATCC14579, 20 h, read-out: Minimal Inhibition Concentration (MIC) B. cereus ATCC14579
E. faecium LMG16003 = assay: microbe, parasite or virus in culture; type: cell-based
C. botulinum CECT551 = assay: microbe, parasite or virus in culture; type: cell-based
S.aureus LMG15975 = assay: microbe, parasite or virus in culture; type: cell-based, Staphylococcus aureus
C. ihumii AP5 = assay: MIC test, anaerobes; type: cell-based; settings: 24 h, read-out: Minimal Inhibition Concentration (MIC) C. ihumii AP5
Protocol: (§1) The resveratrol derivatives were serially diluted in cMHB (BD Difco) in 96-well microplates. Plates were then inoculated with the indicator bacteria at a final concentration of 5 × 10^5 CFU/mL and incubated at 37 °C for 20 h. In the case of the anaerobic bacteria (Clostridium and Clostridioides), the test was performed following the recommendation of CLSI for anaerobes[77] but using RCM medium instead of cMHB. The cultures were cultivated inside an anaerobic chamber at 37 °C for 24 h. All the tests were performed in triplicate.

C. beijerinckii B504 = assay: MIC test, anaerobes; type: cell-based
Protocol: as §1

[4] = tested on: B. cereus ATCC 10987, E. faecalis V583, E. faecium LMG 16003, and S. aureus LMG 8224; type: cell-based; settings: 2-fold the MIC, 24 h, cMHB
C. difficile CECT531 = assay: microbe, parasite or virus in culture; type: cell-based, Clostridioides difficile; settings: for MIC: Clostridioides difficile, CECT531, 24 h, read-out: Minimal Inhibition Concentration (MIC) C. difficile CECT531
E. faecium LMG11423 = assay: microbe, parasite or virus in culture; type: cell-based
C. perfringens CECT376 = assay: microbe, parasite or virus in culture; type: cell-based; settings: for MIC: Clostridium perfringens, CECT376, 24 h, read-out: Minimal Inhibition Concentration (MIC) C. perfringens CECT376
B. cereus ATTC10987 = assay: Membrane integrity assay (propidium iodide uptake); type: cell-based, Bacillus cereus; settings: 2×, 1×, and 0.5× the MIC
Protocol: B. cereus ATTC10987 was grown in LB with shaking at 37 °C for 18 h. After that, the cells were centrifuged and washed in 5 mM HEPES buffer (pH 7.4) plus 5 mM glucose (G-HEPES buffer) three times, adjusted to an OD600 of 0.5 in the same buffer plus 10 μg/mL of propidium iodide (Sigma-Aldrich), and incubated for 10 min at 37 °C. This is a nonfluorescent dye impermeable to the bacterial membranes, but, if the membranes are disturbed, the dye can enter by binding the DNA, providing a strong fluorescent signal. […] The experiment was performed in triplicate.

B. cereus ATCC10987 [5] = assay: Membrane potential assay DiSC3(5); settings: 2×, 1×, and 0.5× the MIC
S. aureus = tested on: S. aureus; parameters: method as in PMID 29906565; settings: cited from earlier work
[6] = tested on: B. cereus ATCC10987 respiratory chain; assay: Activity of the respiratory chain (resazurin reduction); type: cell-based, Bacillus cereus; settings: dose-related, 125 min
Protocol: The effect of the resveratrol derivatives on the B. cereus ATCC10987 respiratory chain was measured by the reduction of resazurin to the fluorescent resorufin. The bacteria were cultured in LB medium at 37 °C to an OD600 of 1. Then, the cells were washed three times in cMHB and resuspended in this medium at a final OD600 of 0.2. Resazurin at 100 μg/mL was added to the cells that were distributed in a 96-well plate. […] No treated cells and just MHB medium with resazurin were used as negative controls. All the tests were performed in triplicate.

B. cereus ATCC10987 [7] = assay: Intracellular ATP level quantification (BacTiter-Glo); settings: 32 μM of the compounds (100 μM for CCCP), 30, 60, and 120 min, 37 °C
in vitro = settings: human
Enterococcus strains = assay: Time killing kinetic and minimal bactericidal concentration, Enterococcus; type: cell-based
[8] = tested on: panel of aerobic and anaerobic Gram-positive bacteria; assay: organism not typed; type: cell-based
[9] = Table 1, 128 to 2 μM, RCM medium, anaerobic, 24 h

4′-tert-butyldimethylsilyl resveratrol [compound 17]
IC50 (MRC5 cells): 15.5 ± 1.3 µM | Minimal Inhibition Concentration (MIC) E. faecalis LMG08222 (E. faecalis LMG08222): 6.6 ± 1.3 µM | Minimal Inhibition Concentration (MIC) S.aureus LMG8224 (S.aureus LMG8224): 8 ± 0 µM | MIC (μM) L-11 + 0 μM (E. coli LMG8224; absence of L-11 outer-membrane-perturbing peptide): >128 µM | MIC (μM) L-11 + 4 μM (E. coli LMG8224): 13.3 ± 2.6 µM | combined effect with traditional antibiotics [1]: an additive effect was mainly observed | effect on actively growing cells (B. cereus ATCC10987 [2]; at 2× the MIC): bactericidal | effect on actively growing cells (B. cereus ATCC10987 [2]; at the MIC concentration): bacteriostatic | Minimal Inhibition Concentration (MIC) C. tetani CECT4629 (C. tetani CECT4629; [9]): 5.3 ± 1.3 µM | Minimal Inhibition Concentration (MIC) B. cereus ATCC10987 (B. cereus ATCC10987 [3]): 8 ± 0 µM | Minimal Inhibition Concentration (MIC) E. faecalis LMG16216 (E. faecalis LMG16216): 8 ± 0 µM | Minimal Inhibition Concentration (MIC) E. faecalis V583 (E. faecalis V583): 8 ± 0 µM | Minimal Inhibition Concentration (MIC) S.aureus LMG10147 (S.aureus LMG10147): 8 ± 0 µM | Minimal Inhibition Concentration (MIC) B. cereus ATCC14579 (B. cereus ATCC14579): 4 ± 0 µM | Minimal Inhibition Concentration (MIC) E. faecium LMG16003 (E. faecium LMG16003): 8 ± 0 µM | Minimal Inhibition Concentration (MIC) C. botulinum CECT551 (C. botulinum CECT551; [9]): 13.3 ± 2.6 µM | Minimal Inhibition Concentration (MIC) S.aureus LMG15975 (S.aureus LMG15975): 8 ± 0 µM | MIC (C. ihumii AP5; Table 1, 128 to 2 μM, RCM medium, anaerobic): 16 µM | Minimal Inhibition Concentration (MIC) C. beijerinckii B504 (C. beijerinckii B504; [9]): 10.6 ± 2.6 µM | bactericidal/bacteriostatic effect [4]: bactericidal | Minimal Inhibition Concentration (MIC) C. difficile CECT531 (C. difficile CECT531): 21.3 ± 5.3 µM | Minimal Inhibition Concentration (MIC) E. faecium LMG11423 (E. faecium LMG11423): 8 ± 0 µM | Minimal Inhibition Concentration (MIC) C. perfringens CECT376 (C. perfringens CECT376): 13.3 ± 2.6 µM

Oc1ccc(/C=C/c2cc(O)cc(O)c2)cc1 [compound 1, Resveratrol]
membrane permeabilization (propidium iodide uptake) (B. cereus ATTC10987): did not induce any effect on membrane permeability | membrane potential change (DiSC3(5)) (B. cereus ATCC10987 [5]): did not induce any membrane potential change | concentration 0.5× the MIC at which additive effects with aminoglycosides were obtained (S. aureus): about 560 μM | effect on the respiratory chain (reduction of resazurin) [6]: No effect | intracellular ATP levels (B. cereus ATCC10987 [7]): did not statistically affect the ATP levels | IC50 at 72 h (in vitro): 56.6 ± 3.2 µM

CCCCOc1cc(/C=C/c2ccc(OS(=O)(=O)O)cc2)cc(OS(=O)(=O)O)c1 [compound 15, 3-butyl-4′,5-disulfate resveratrol]
MIC (E. coli LMG8224): > 128 µM | bactericidal/bacteriostatic effect (Enterococcus strains; Enterococcus strains, 2-fold the MIC, 24 h, minimal bactericidal concentration test): bacteriostatic | MBC (Enterococcus strains; Enterococcus, read-out: minimal bactericidal concentration (bacteria grew after the treatment)): > 128 µM | combined effect with traditional antibiotics [1]: strong synergistic effects | effect on actively growing cells (B. cereus ATCC10987 [2]; at 2× the MIC): bactericidal | effect on actively growing cells (B. cereus ATCC10987 [2]; at the MIC concentration): bacteriostatic | MIC (B. cereus ATCC10987 [3]): 8 µM (≈ 3.56 µg/mL) | MIC (E. faecalis V583): 26.6 ± 5.3 µM (≈ 11.8 µg/mL) | MIC (S.aureus LMG10147): 8 µM (≈ 3.56 µg/mL) | MIC (B. cereus ATCC14579): 6.6 ± 1.3 µM (≈ 2.93 µg/mL) | MIC (C. difficile CECT531): 64 µM (≈ 28.4 µg/mL) | IC50 (in vitro): 24.9 ± 4 µM | antibacterial activity against the Gram-positive panel [8]: active against all Gram-positive bacterial strains examined | MIC (C. perfringens CECT376): 26.6 ± 5.3 µM (≈ 11.8 µg/mL)

CC(C)[Si](Oc1cc(O)cc(/C=C/c2ccc(O)cc2)c1)(C(C)C)C(C)C [compound 32]
MIC (E. faecalis LMG08222; Enterococcus faecalis, LMG08222, 20 h, read-out: Minimal Inhibition Concentration (MIC) E. faecalis LMG08222): 4 µM (≈ 1.54 µg/mL) | MIC (S.aureus LMG8224; Staphylococcus aureus, LMG8224, 20 h, read-out: Minimal Inhibition Concentration (MIC) S.aureus LMG8224): 8 µM (≈ 3.08 µg/mL) | MIC (E. coli LMG8224): > 128 µM | MIC (μM) L-11 + 4 μM (E. coli LMG8224): 8 ± 0 µM | lysis of actively growing cells (B. cereus ATCC10987 [2]; 2×, 1×, and 0.5× the MIC added at mid exponential phase): most effective derivatives lysing the cells | effect on the respiratory chain (reduction of resazurin) [6]: comparable to or even higher than that of the proton ionophore decoupler of the electron transport chain CCCP | MIC (C. tetani CECT4629; Clostridium tetani, CECT4629, 24 h, read-out: Minimal Inhibition Concentration (MIC) C. tetani CECT4629): 5.3 ± 1.3 µM (≈ 2.04 µg/mL) | MIC (B. cereus ATCC10987 [3]): 8 µM (≈ 3.08 µg/mL) | MIC (E. faecalis LMG16216; Enterococcus faecalis, LMG16216, 20 h, read-out: Minimal Inhibition Concentration (MIC) E. faecalis LMG16216): 4 µM (≈ 1.54 µg/mL) | MIC (E. faecalis V583): 8 µM (≈ 3.08 µg/mL) | MIC (S.aureus LMG10147): 8 µM (≈ 3.08 µg/mL) | MIC (B. cereus ATCC14579): 8 µM (≈ 3.08 µg/mL) | MIC (E. faecium LMG16003; Enterococcus faecium, LMG16003, 20 h, read-out: Minimal Inhibition Concentration (MIC) E. faecium LMG16003): 4 µM (≈ 1.54 µg/mL) | MIC (C. botulinum CECT551; Clostridium botulinum, CECT551, 24 h, read-out: Minimal Inhibition Concentration (MIC) C. botulinum CECT551): 8 µM (≈ 3.08 µg/mL) | MIC (S.aureus LMG15975; Staphylococcus aureus, LMG15975, 20 h, read-out: Minimal Inhibition Concentration (MIC) S.aureus LMG15975): 8 µM (≈ 3.08 µg/mL) | MIC (C. ihumii AP5): 16 µM (≈ 6.15 µg/mL) | MIC (C. beijerinckii B504; Clostridium beijerinckii, B504, 24 h, read-out: Minimal Inhibition Concentration (MIC) C. beijerinckii B504): 10.7 ± 2.6 µM (≈ 4.12 µg/mL) | bactericidal/bacteriostatic effect [4]: bactericidal | intracellular ATP levels (B. cereus ATCC10987 [7]): reduced dramatically the ATP levels | MIC (C. difficile CECT531): 16 µM (≈ 6.15 µg/mL) | IC50 (in vitro): 1.8 ± 0.1 µM | MIC (E. faecium LMG11423; Enterococcus faecium, LMG11423, 20 h, read-out: Minimal Inhibition Concentration (MIC) E. faecium LMG11423): 4 µM (≈ 1.54 µg/mL) | MIC (C. perfringens CECT376): 16 µM (≈ 6.15 µg/mL)
